Columns and labels:
Format in all cases: functional, cell-based
MDA-MB-231 = test: Cytotoxicity against human MDA-MB-231 cells
MIA PaCa-2 = test: Cytotoxicity against human MIAPaCa2 cells
LNCaP = test: Cytotoxicity against human LNCAP cells
DU-145 = test: Cytotoxicity against human DU145 cells
PC-3 = test: Cytotoxicity against human PC3 cells
MCF7 = test: Cytotoxicity against human MCF7 cells

Structure (SMILES)	IC50 (MDA-MB-231)	IC50 (MIA PaCa-2)	IC50 (LNCaP)	IC50 (DU-145)	IC50 (PC-3)	IC50 (MCF7)
Brc1ccc2[nH]cc(-c3nsc(-c4c[nH]c5ccc(Br)cc45)n3)c2c1	100 µM	124 µM	159 µM	56.7 µM	162 µM	31.3 µM
Brc1ccc2c(-c3nsc(-c4c[nH]c5cc(Br)ccc45)n3)c[nH]c2c1	38.3 µM	83 µM	80.1 µM	30.2 µM	132 µM	39.2 µM
c1ccc2c(Cc3nsc(Cc4c[nH]c5ccccc45)n3)c[nH]c2c1	65 µM	31.3 µM	43.3 µM	51.2 µM	44.2 µM	40.5 µM
COc1ccc2c(-c3nsc(-c4c[nH]c5cc(OC)ccc45)n3)c[nH]c2c1	44.3 µM	95.3 µM	35.8 µM	42.3 µM	76.1 µM	35.3 µM
Cn1cc(-c2nsc(-c3cn(C)c4ccccc34)n2)c2ccccc21	236 µM	185 µM	226 µM	64 µM	92.3 µM	177 µM
Cn1cc(-c2nsc(-c3cn(C)c4ccc(Br)cc34)n2)c2cc(Br)ccc21	> 1000 µM	> 1000 µM	> 1000 µM	> 1000 µM	> 1000 µM	63.6 µM
COc1ccc2c(c1)c(-c1nsc(-c3cn(Cc4ccc(Cl)cc4)c4ccc(OC)cc34)n1)cn2Cc1ccc(Cl)cc1	67.9 µM	21.2 µM	14.6 µM	370 µM	21.4 µM	32.1 µM
COc1ccc2[nH]cc(-c3nsc(-c4c[nH]c5ccc(OC)cc45)n3)c2c1	> 1000 µM	45.8 µM	295 µM	206 µM	224 µM	424 µM
c1ccc2[nH]c(-c3nsc(-c4cc5ccccc5[nH]4)n3)cc2c1	> 1000 µM	102 µM	247 µM	453 µM	326 µM	162 µM
COc1ccc2c(c1)c(-c1nsc(-c3cn(C)c4ccc(OC)cc34)n1)cn2C	95.7 µM	177 µM	111 µM	137 µM	270 µM	79.9 µM
O=[N+]([O-])c1ccc2[nH]cc(-c3nsc(-c4c[nH]c5ccc([N+](=O)[O-])cc45)n3)c2c1	98.6 µM	187 µM	177 µM	325 µM	680 µM	83.5 µM
Clc1ccc(Cn2cc(-c3nsc(-c4cn(Cc5ccc(Cl)cc5)c5ccccc45)n3)c3ccccc32)cc1	> 1000 µM	101 µM	413 µM	> 1000 µM	> 1000 µM	> 1000 µM
Cn1c(-c2nsc(-c3cc4ccccc4n3C)n2)cc2ccccc21	> 1000 µM	260 µM	207 µM	> 1000 µM	432 µM	66.4 µM
c1ccc2c(-c3nsc(-c4c[nH]c5ccccc45)n3)c[nH]c2c1	702 µM	> 1000 µM	> 1000 µM	248 µM	> 1000 µM	143 µM

— ChEMBL document CHEMBL1833853, “Synthesis and in-vitro anticancer activity of 3,5-bis(indolyl)-1,2,4-thiadiazoles” (Bioorg Med Chem Lett, 2011)
